18 compounds from patent publication US20170107207A1, “AMINOPYRAZOLONE DERIVATIVE” (DAIICHI SANKYO COMPANY, LIMITED, priority 2014, published 2017) can be followed below.

One test concerns the target T1, TIP48/TIP49 complex (Homo sapiens, UniProt Q9Y230+Q9Y265).
T1 construct: made in house; host or cells: E. coli
Briefly: ATPase assay of TIP48/TIP49 complex (ADP-Glo). The class given is biochemical. The settings on record: concentration at which the ATPase activity was inhibited by 50%. Summed up: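 Compound was tested over 10 four-fold concentrations, 200 μM down to 0.0007 μM at 2% DMSO, against E. coli-derived human rTIP48/rTIP49 for 1.5 h at room temperature, pH 7.5 with ATP. ATP hydrolysis was read as ADP-Glo luminescence, normalised to complex-only and no-complex wells, then fitted to dose-response curves.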

The test system of test [1] is human lymphoma cell line RAMOS cells. Put plainly: Cell growth inhibition test using RAMOS cell, MTT assay. The test is classed as cell-based. The settings on record: 50% growth inhibition concentration. Here is the method:
A cell growth inhibition test was carried out by treating human lymphoma cell line RAMOS cells with a test compound for a given period and then counting the number of viable cells by MTT assay or CellTiter-Glo Luminescent Cell Viability Assay (manufactured by Promega Corp.; hereinafter, referred to as ATP assay).
RAMOS cells were suspended in a medium (RPMI1640 medium containing 10% fetal bovine serum). The cell suspension was inoculated at 5000 cells/150 μL/well to a 96-well multiwell plate. The test compound was dissolved in DMSO, and this solution was diluted with medium to prepare a sample solution (DMSO concentration: 1% or lower). Subsequently, test compound-free medium or the sample solution was added thereto at 50 μL/well. The MTT assay was carried out at the day of addition of the sample solution or the DMSO dilution to the cells and after culture at 37° C. for 3 days under 5% CO2 of the cells supplemented with the sample solution or the medium. The MTT assay was carried out as follows.
A 5 mg/mL solution of MTT (3-(4,5-dimethylthiazol-2-yl)-2,5-diphenyltetrazolium bromide, Sigma-Aldrich Corp., M-2128) was prepared using a phosphate buffered solution (Dulbecco's phosphate-buffered saline). This MTT solution was added at 20 μL/well to the plate. Then, the plate was incubated at 37° C. for 4 hours under 5% CO2. The plate was centrifuged at 1200 rpm for 5 minutes, and then, the culture supernatant was removed by suction using a dispenser. DMSO was added thereto at 150 μL/well to dissolve formed formazan. […] from each well was rendered uniform by the stirring of the plate using a plate mixer. The absorbance of each well was measured using a plate reader under conditions involving OD of 540 nm and reference of 660 nm.
The number of viable cells and absorbance (hereinafter, referred to as an OD value) have been confirmed to correlate with each other. Therefore, the rate of cell growth was calculated according to the following expression: Rate of cell growth (T/C %) of a test compound-supplemented well=100×[(B−C)/(A−C)] wherein A represents the OD value (final culture date) of a test compound-free well; B represents the OD value (final culture date) of a test compound-containing well; and C represents the OD value (day of cell inoculation) of a well at the start of contact of the cells with the test compound.
T/C % at each concentration of the test compound was determined. The concentration at which the test compound offered 50% growth rate was calculated as a 50% growth inhibition concentration (GI50) value from the growth rates at two points interpolating 50% and the concentrations, and is shown in Table 56.
A general note: Tetrazolium assays rely on reduction of a dye to a coloured formazan, in cell work by metabolically active cells.

Molecules are shown by their SMILES.

T1 sequence (Q9Y230 whole entry): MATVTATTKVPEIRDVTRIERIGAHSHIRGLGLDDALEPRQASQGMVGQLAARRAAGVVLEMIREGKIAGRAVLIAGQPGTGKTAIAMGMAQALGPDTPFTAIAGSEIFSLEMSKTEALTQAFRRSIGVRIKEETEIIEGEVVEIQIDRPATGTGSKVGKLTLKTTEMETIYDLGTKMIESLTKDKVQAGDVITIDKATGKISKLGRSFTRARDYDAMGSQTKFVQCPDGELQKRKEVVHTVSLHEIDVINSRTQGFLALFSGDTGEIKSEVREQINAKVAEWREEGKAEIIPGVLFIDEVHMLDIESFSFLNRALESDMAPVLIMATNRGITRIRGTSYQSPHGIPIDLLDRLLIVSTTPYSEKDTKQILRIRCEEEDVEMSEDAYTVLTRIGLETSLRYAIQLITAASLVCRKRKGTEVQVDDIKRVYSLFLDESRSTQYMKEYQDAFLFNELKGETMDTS
T1 sequence (Q9Y265 whole entry): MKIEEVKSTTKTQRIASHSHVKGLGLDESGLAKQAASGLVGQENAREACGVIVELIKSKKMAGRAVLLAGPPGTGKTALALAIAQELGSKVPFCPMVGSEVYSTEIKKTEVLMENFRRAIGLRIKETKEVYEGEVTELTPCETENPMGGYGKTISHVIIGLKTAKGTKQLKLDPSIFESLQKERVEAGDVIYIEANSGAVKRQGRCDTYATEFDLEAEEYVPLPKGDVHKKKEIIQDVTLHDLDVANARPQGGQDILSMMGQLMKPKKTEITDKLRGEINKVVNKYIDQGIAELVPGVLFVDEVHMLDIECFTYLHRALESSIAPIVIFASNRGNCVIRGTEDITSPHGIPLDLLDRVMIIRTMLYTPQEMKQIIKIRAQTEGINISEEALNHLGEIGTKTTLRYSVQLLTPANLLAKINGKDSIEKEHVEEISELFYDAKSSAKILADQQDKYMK

What is called IC50 is the concentration that inhibits the measured activity by half. Low readings indicate greater potency, high ones weaker potency. As a reminder, the GI50 is the concentration giving 50% growth inhibition. As for `COc1ncc(Cl)cc1C(=O)NCC(C)(C)CC(=O)Nc1c(CN(C)C)n(C)n(-c2ccccc2)c1=O` [Example 7, 5-Chloro-N-[4-({5-[(dimethylamino)methyl]-1-methyl-3-oxo-2-phenyl-2,3-dihydro-1H-pyrazol-4-yl}amino)-2,2-dimethyl-4-oxobutyl]-2-methoxypyridine-3-carboxamide], at TIP48/TIP49 complex, the midpoint of inhibition, the IC50, lay at 110 nM. Also, growth in test [1] was halved (GI50) at 470 nM.

As to `COc1ccc(Cl)cc1C(=O)NCC(C)(C)CC(=O)Nc1c(CN(C)CCO)n(C)n(-c2ccccc2)c1=O` [Example 8, 5-Chloro-N-(4-[(5-{[2-hydroxyethyl(methyl)amino]methyl}-1-methyl-3-oxo-2-phenyl-2,3-dihydro-1H-pyrazol-4-yl)amino]-2,2-dimethyl-4-oxobutyl)-2-methoxybenzamide], the IC50 on TIP48/TIP49 complex came out at 96 nM. The same compound returned a GI50 in test [1] of 170 nM.

In turn, `COc1cc(F)c(Cl)cc1NC(=O)CC(C)(C)CC(=O)Nc1c(CN(C)C)n(C)n(-c2ccccc2)c1=O` [Example 9, N-(5-Chloro-4-fluoro-2-methoxyphenyl)-N′-{5-[(dimethylamino)methyl]-1-methyl-3-oxo-2-phenyl-2,3-dihydro-1H-pyrazol-4-yl}-3,3-dimethylpentanediamide] displayed an IC50 against TIP48/TIP49 complex of 210 nM. For the same compound, the GI50 in test [1] was 480 nM.

For the compound `CCOc1ccc(Cl)cc1C(=O)NCC(C)(C)CC(=O)Nc1c(CCNC(=O)OC(C)(C)C)n(C)n(-c2ccccc2)c1=O` [Example 10, tert-Butyl N-{2-[4({4-[(5-chloro-2-ethoxybenzoyl)amino]-3,3-dimethylbutanoyl}amino)-2-methyl-5-oxo-1-phenyl-2,3-dihydro-1H-pyrazol-3-yl]ethyl}carbamate], on TIP48/TIP49 complex, the IC50 was 14 nM. The compound further gave a GI50 in test [1] of 45 nM.

At TIP48/TIP49 complex, `CCOc1ccc(Cl)cc1C(=O)NCC(C)(C)CC(=O)Nc1c(CCN(CC)CC)n(C)n(-c2ccccc2)c1=O` [Example 17, 5-Chloro-N-[4-({5-[2-(diethylamino)ethyl]-1-methyl-3-oxo-2-phenyl-2,3-dihydro-1H-pyrazol-4-yl}amino)-2,2-dimethyl-4-oxobutyl]-2-ethoxybenzamide] displayed an IC50 of 60 nM. Besides, in test [1], halving of growth (GI50) required 130 nM.

Turning to `CCOc1ccc(Cl)cc1C(=O)NCC(C)(C)CC(=O)Nc1c(CCNC(C)C)n(C)n(-c2ccccc2)c1=O` [Example 18, 5-Chloro-N-[4-({5-[2-(isopropylamino)ethyl]-1-methyl-3-oxo-2-phenyl-2,3-dihydro-1H-pyrazol-4-yl}amino)-2,2-dimethyl-4-oxobutyl]-2-ethoxybenzamide], the IC50 against TIP48/TIP49 complex stood at 65 nM. Besides, in test [1], it took 550 nM to inhibit growth by half (GI50).

`CCOc1ccc(Cl)cc1C(=O)NCC(C)(C)CC(=O)Nc1c(CCN(C)C(C)C)n(C)n(-c2ccccc2)c1=O` [Example 19, 5-Chloro-2-ethoxy-N-{4-[(5-{2-[isopropyl(methyl)amino]ethyl}-1-methyl-3-oxo-2-phenyl-2,3-dihydro-1H-pyrazol-4-yl)amino]-2,2-dimethyl-4-oxobutyl}benzamide]: the IC50 at TIP48/TIP49 complex worked out at 63 nM. The GI50 in test [1] came out at 150 nM.

With `COc1ccc(Cl)cc1C(=O)NCC(C)(C)CC(=O)Nc1c(CCNC(=O)OC(C)(C)C)n(C)n(-c2ccccc2)c1=O` [Example 20, tert-Butyl N-{2-[4-({4-[(5-chloro-2-methoxybenzoyl)amino]-3,3-dimethylbutanoyl}amino)-2-methyl-5-oxo-1-phenyl-2,3-dihyro-1H-pyrazol-3-yl]ethyl}carbamate], inhibition on TIP48/TIP49 complex was half-maximal at 65 nM (IC50). Also, in test [1], the GI50 is 190 nM.

For `COc1ccc(Cl)cc1C(=O)NCC(C)(C)CC(=O)Nc1c(CCN)n(C)n(-c2ccccc2)c1=O` [Example 21], it took 110 nM to reach half-maximal inhibition on TIP48/TIP49 complex (IC50). This compound also registered a GI50 in test [1] of 920 nM.

Regarding `COc1ccc(Cl)cc1C(=O)NCC(C)(C)CC(=O)Nc1c(CCN(C)C)n(C)n(-c2ccccc2)c1=O` [Example 22, 5-Chloro-N-[4-({5-[2-(dimethylamino)ethyl]-1-methyl-3-oxo-2-phenyl-2,3-dihydro-1H-pyrazol-4-yl}amino)-2,2-dimethyl-4-oxobutyl]-2-methoxybenzamide], the IC50 against TIP48/TIP49 complex amounted to 110 nM. Besides, in test [1], the GI50 was determined as 460 nM.

The compound `CCOc1ccc(Cl)cc1NC(=O)CC(C)(C)CC(=O)Nc1c(CCN(C)C)n(C)n(-c2ccccc2)c1=O` [Example 23, N-(5-Chloro-2-ethoxyphenyl)-N′-{5-[2-(dimethylamino)ethyl]-1-methyl-3-oxo-2-phenyl-2,3-dihydro-1H-pyrazol-4-yl}-3,3-dimethylpentanediamide] registered an IC50 against TIP48/TIP49 complex of 110 nM. Moreover, halving of growth in test [1] (GI50) required 270 nM.

`CCOc1cc(F)c(Cl)cc1NC(=O)CC(C)(C)CC(=O)Nc1c(CCN(C)C)n(C)n(-c2ccccc2)c1=O` [Example 24, N-(5-Chloro-2-ethoxy-4-fluorophenyl)-N′-{5-[2-(dimethylamino)ethyl]-1-methyl-3-oxo-2-phenyl-2,3-dihydro-1H-pyrazol-4-yl}-3,3-dimethylpentanediamide] gave an IC50 against TIP48/TIP49 complex of 380 nM. The compound also showed a GI50 in test [1] of 480 nM.

In the case of `CCOc1ncc(Cl)cc1NC(=O)CC(C)(C)CC(=O)Nc1c(CCN(C)C)n(C)n(-c2ccccc2)c1=O` [Example 25, N-(5-Chloro-2-ethoxy-3-pyridyl)-N′-{5-[2-(dimethylamino)ethyl]-1-methyl-3-oxo-2-phenyl-2,3-dihydro-1H-pyrazol-4-yl}-3,3-dimethylpentanediamide], the half-inhibitory concentration (IC50) against TIP48/TIP49 complex was 140 nM. The same compound came in with a GI50 in test [1] of 490 nM.

As to `CCOc1ccc(Cl)cc1C(=O)NCC(C)(C)CC(=O)Nc1c(CCNC)n(C)n(-c2ccccc2)c1=O` [Example 33, 5-Chloro-N-[2,2-dimethyl-4-({1-methyl-5-[2-(methylamino)ethyl]-3-oxo-2-phenyl-2,3-dihydro-1H-pyrazol-4-yl}amino)-4-oxobutyl]-2-ethoxybenzamide], the IC50 at TIP48/TIP49 complex is 63 nM. For the same compound, in test [1], the GI50 worked out at 130 nM.

Turning to `CCOc1ccc(Cl)cc1C(=O)NCC(C)(C)CC(=O)Nc1c(CCN(C)CC)n(C)n(-c2ccccc2)c1=O` [Example 35, 5-Chloro-2-ethoxy-N-{4-[(5-{2-[ethyl(methyl)amino]ethyl}-1-methyl-3-oxo-2-phenyl-2,3-dihydro-1H-pyrazol-4-yl)amino]-2,2-dimethyl-4-oxobutyl}benzamide], inhibition on TIP48/TIP49 complex was half-maximal at 26 nM (IC50). Growth in test [1] was halved (GI50) at 98 nM.

`CCOc1ccc(Cl)cc1C(=O)NCC(C)(C)CC(=O)Nc1c(CCCN(C)C)n(C)n(-c2ccccc2)c1=O` [Example 63, 5-Chloro-N-[4-({5-[3-(dimethylamino)propyl]-1-methyl-3-oxo-2-phenyl-2,3-dihydro-1H-pyrazol-4-yl}amino)-2,2-dimethyl-4-oxobutyl]-2-ethoxybenzamide] came in with a half-inhibitory concentration (IC50) against TIP48/TIP49 complex of 29 nM. The same compound yielded a GI50 in test [1] of 100 nM.

Take `CCOc1ccc(Cl)cc1C(=O)NCC(C)(C)CC(=O)Nc1c(CCCCN(C)C)n(C)n(-c2ccccc2)c1=O` [Example 88, 5-Chloro-N-[4-({5-[4-(dimethylamino)butyl]-1-methyl-3-oxo-2-phenyl-2,3-dihydro-1H-pyrazol-4-yl}amino)-2,2-dimethyl-4-oxobutyl]-2-ethoxybenzamide]: it took 33 nM to reach half-maximal inhibition on TIP48/TIP49 complex (IC50). In addition, it took 61 nM to inhibit growth in test [1] by half (GI50).

`CCOc1ccc(Cl)cc1C(=O)NCC(C)(C)CC(=O)Nc1c(C)n(C)n(-c2ccccc2)c1=O` [Example 93, 5-Chloro-N-{4-[(1,5-dimethyl-3-oxo-2-phenyl-2,3-dihydro-1H-pyrazol-4-yl)amino]-2,2-dimethyl-4-oxobutyl}-2-ethoxybenzamide]: the IC50 against TIP48/TIP49 complex worked out at 25 nM. Halving of growth in test [1] (GI50) required 55 nM.
